Assay [1] addresses T1, β-glucuronidase (bovine liver) (Bos taurus, UniProt A3KMY8).
T1 construct: purchased Sigma-Aldrich; host or cells: bovine liver
T1 sequence (A3KMY8 1-652): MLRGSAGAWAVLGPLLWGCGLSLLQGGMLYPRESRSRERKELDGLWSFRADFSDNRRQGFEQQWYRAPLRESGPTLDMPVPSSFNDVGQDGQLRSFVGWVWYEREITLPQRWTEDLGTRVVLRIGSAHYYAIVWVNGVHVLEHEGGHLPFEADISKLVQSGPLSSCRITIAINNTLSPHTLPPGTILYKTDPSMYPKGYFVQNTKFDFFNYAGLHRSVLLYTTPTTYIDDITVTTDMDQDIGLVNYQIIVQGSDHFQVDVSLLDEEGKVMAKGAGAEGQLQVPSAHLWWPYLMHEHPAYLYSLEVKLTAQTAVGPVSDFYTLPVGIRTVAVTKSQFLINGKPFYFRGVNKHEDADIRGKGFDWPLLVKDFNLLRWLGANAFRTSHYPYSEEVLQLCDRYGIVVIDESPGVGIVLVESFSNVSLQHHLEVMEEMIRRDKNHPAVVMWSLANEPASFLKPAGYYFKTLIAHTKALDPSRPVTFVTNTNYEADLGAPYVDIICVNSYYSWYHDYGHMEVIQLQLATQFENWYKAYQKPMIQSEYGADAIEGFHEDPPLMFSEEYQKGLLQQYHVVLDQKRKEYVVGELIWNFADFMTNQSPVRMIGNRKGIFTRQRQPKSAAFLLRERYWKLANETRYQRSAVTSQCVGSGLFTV
Put plainly: Glycosidase assay, β-glucuronidase (bovine liver). It counts as biochemical. The settings on record: read-out: IC50 against bovine liver β-glucuronidase. On the procedure: (§1) The assays used p-nitrophenyl-substrates and commercial enzymes purchased from Sigma-Aldrich. Enzymes were assayed at 27° C. in 0.1M citric acid/0.2M disodium hydrogen phosphate buffers at the optimum pH for the enzyme. The incubation mixture consisted of 10 μl enzyme solution, 10 μl of 10 mg/ml aqueous solution of extract and 50 μl of the appropriate 5 mM p-nitrophenyl substrate made up in buffer at the optimum pH for the enzyme. The reactions were stopped by addition of 70 μl 0.4M glycine (pH 10.4) during the exponential phase of the reaction, which had been determined at the beginning using uninhibited assays in which water replaced mulberry fractions. Final absorbances were read at 405 nm using a Versamax microplate reader (Molecular Devices). Assays were carried out in triplicate, and the values given are means of the three replicates per assay. Results are expressed as % inhibition.
(§2) Substrates are 10 mM p-nitrophenyl-glycopyranosides. Enzymes are purchased from Sigma and run at the pH optima

The test system of assay [2] is β-D-mannosidase Cellulomonas fimi. Description: Glycosidase assay, β-D-mannosidase (Cellulomonas fimi). The assay is classed as biochemical. The note with it: Table 16; % inhibition; concentration not given. On the procedure: as §1
Assay [3] concerns the target T2, α-D-mannosidase (Jack bean) (Canavalia ensiformis, UniProt C0HJB3).
T2 construct: purchased Sigma-Aldrich
T2 sequence (C0HJB3 1-562 limits assumed): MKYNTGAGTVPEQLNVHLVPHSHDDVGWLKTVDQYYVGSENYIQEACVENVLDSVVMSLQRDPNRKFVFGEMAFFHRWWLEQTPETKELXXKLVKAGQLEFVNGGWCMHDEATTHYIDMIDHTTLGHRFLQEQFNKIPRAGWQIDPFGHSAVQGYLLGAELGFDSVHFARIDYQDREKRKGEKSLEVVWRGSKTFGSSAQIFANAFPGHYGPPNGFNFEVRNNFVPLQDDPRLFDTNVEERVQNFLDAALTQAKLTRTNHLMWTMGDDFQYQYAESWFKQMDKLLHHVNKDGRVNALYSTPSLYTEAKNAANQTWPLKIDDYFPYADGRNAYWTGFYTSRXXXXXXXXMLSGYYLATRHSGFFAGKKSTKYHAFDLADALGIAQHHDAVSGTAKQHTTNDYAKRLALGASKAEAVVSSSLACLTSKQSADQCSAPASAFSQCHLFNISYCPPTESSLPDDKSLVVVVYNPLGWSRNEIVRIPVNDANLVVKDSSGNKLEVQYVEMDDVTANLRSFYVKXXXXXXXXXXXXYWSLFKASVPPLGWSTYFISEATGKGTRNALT
Put plainly: Glycosidase assay, α-D-mannosidase (Jack bean). The note with it: Table 16; % inhibition; concentration not given. The assay is classed as biochemical. Here is the method: as §1, with “The reactions were stopped by addition of 70 μl 0.4M glycine (pH 10.4) during the exponential phase of the reaction, which had been determined at the beginning using uninhibited assays in which water replaced mulberry fractions.” left out
as §2

Assay [4] has as its target T3, amyloglucosidase (A. niger) (Aspergillus niger, UniProt P69328).
T3 construct: purchased Sigma-Aldrich
Description: Glycosidase assay, amyloglucosidase (A. niger). The assay is classed as biochemical. The settings on record: Table 16; % inhibition; concentration not given. Here is the method: as §1, §2

A further assay concerns the target T4, α-D-glucosidase (Yeast) (Saccharomyces cerevisiae, UniProt P53341).
T4 construct: purchased Sigma-Aldrich
Description: Glycosidase assay, α-D-glucosidase (Yeast). The note with it: Table 16; % inhibition; concentration not given. It counts as biochemical. On the procedure: as §1, §2

In a further assay the target is T5, α-D-glucosidase (rice) (Oryza sativa subsp. japonica, UniProt Q653V7).
T5 construct: purchased Sigma-Aldrich
T5 sequence (Q653V7 34-885): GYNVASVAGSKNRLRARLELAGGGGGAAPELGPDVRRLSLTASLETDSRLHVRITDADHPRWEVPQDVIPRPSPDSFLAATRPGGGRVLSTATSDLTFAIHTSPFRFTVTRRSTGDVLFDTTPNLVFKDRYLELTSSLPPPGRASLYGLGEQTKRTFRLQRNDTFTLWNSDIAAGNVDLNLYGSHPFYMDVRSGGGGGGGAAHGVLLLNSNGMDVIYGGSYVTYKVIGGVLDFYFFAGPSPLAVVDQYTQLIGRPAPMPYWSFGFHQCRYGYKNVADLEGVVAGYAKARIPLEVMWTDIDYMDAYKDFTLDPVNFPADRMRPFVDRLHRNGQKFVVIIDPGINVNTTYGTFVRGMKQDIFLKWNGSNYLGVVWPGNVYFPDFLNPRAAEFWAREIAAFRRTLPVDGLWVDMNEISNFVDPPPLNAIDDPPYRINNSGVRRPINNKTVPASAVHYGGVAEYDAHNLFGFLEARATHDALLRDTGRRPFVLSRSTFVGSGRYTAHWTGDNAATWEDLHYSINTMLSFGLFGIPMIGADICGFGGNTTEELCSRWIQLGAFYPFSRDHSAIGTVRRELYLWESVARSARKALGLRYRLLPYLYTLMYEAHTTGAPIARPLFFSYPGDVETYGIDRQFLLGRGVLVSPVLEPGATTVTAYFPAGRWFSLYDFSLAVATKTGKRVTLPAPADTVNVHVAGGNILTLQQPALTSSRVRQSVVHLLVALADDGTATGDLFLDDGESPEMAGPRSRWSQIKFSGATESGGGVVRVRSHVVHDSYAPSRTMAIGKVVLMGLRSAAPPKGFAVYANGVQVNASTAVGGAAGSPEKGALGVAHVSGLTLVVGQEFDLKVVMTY
Description: Glycosidase assay, α-D-glucosidase (rice). The settings on record: Table 16; % inhibition; concentration not given. The assay is classed as biochemical. On the procedure: as §1, §2

For assay [5], the system named is α-D-glucosidase (Bacillus). Put plainly: Glycosidase assay, α-D-glucosidase (Bacillus). The assay is classed as biochemical. The settings on record: Table 16; % inhibition; concentration not given. Here is the method: as §1, §2
Assay [6] addresses T3, amyloglucosidase (A. niger). Also on record: key: NI = no inhibition. The settings on record: typical DNJ inhibitory activity shown for reference, in words; cited from earlier work.
In assay [7] the target is T2, α-D-mannosidase (Jack bean). The note with it: typical DNJ inhibitory activity shown for reference, in words; cited from earlier work.
In a further assay the test system is β-D-glucosidase (almond). The settings on record: typical DNJ inhibitory activity shown for reference, in words; cited from earlier work.
Another assay concerns the target T6, α-L-fucosidase (bovine) (Bos taurus, UniProt Q2KIM0).
T6 construct: purchased Sigma-Aldrich
T6 sequence (Q2KIM0 23-468): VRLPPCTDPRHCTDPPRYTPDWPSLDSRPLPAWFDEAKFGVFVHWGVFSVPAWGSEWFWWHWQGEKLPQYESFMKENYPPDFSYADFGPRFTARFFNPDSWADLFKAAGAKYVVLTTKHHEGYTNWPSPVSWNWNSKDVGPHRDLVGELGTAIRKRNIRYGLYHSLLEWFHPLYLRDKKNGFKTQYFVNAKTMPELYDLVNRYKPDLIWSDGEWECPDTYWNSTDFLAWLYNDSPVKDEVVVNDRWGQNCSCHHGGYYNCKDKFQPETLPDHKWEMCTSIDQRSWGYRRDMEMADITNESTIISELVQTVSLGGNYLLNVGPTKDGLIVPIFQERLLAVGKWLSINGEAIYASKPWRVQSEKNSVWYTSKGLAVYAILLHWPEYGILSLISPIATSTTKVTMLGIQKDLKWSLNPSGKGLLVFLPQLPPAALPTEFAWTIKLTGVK
The arrangement: key: NI = no inhibition. The note with it: typical DNJ inhibitory activity shown for reference, in words; cited from earlier work.

Each structure is given as a SMILES string.

What is called IC50 is the concentration that gives 50% inhibition.

T4 sequence (P53341 whole entry): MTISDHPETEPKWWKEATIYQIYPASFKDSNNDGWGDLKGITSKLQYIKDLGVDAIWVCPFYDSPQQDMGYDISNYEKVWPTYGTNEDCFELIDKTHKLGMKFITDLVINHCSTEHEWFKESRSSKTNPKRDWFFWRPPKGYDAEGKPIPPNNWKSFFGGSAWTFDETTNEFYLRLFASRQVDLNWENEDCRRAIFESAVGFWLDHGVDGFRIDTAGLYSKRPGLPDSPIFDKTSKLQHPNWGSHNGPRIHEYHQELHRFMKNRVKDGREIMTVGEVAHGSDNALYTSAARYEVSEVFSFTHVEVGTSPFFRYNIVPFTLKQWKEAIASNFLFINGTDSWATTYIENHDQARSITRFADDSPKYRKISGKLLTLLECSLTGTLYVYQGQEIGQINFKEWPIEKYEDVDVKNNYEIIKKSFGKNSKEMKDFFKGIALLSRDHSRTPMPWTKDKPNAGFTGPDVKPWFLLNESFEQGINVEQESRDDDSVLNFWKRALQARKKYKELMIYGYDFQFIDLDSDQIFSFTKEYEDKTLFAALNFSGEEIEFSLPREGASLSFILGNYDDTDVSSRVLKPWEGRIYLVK
T3 sequence (P69328 25-640): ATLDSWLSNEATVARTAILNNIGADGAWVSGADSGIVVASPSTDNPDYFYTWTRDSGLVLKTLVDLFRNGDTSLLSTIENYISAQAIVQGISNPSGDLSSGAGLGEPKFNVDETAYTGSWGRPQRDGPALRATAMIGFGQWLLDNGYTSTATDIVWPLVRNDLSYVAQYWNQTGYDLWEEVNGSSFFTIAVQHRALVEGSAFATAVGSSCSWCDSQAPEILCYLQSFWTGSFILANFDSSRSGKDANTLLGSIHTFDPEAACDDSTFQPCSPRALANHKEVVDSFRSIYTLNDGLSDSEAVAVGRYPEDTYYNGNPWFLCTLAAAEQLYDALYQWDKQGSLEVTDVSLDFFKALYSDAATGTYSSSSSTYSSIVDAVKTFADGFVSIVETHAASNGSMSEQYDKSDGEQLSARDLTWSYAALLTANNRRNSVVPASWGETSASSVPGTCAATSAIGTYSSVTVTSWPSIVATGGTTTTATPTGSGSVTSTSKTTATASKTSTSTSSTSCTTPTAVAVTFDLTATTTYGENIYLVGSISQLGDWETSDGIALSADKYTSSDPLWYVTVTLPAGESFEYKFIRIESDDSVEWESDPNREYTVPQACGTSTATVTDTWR

As to `O=C(O)CN1C[C@H](O)[C@@H](O)[C@H](O)[C@H]1CO` [DNJ-N-ethanoic, DNJ-ethanoic acid], the IC50 in [1] was determined as 208 µM. Also, the “β-D-mannosidase (C. fimi)” value in assay [2] is listed as −10%. In assay [3], the “α-D-mannosidase (Jack bean)” value was 38%. For the same compound, the Amyloglucosidase in assay [4] is 0%. In addition, the “α-D-glucosidase (Yeast)” value at α-D-glucosidase (Yeast) is listed as 2.5%. Moreover, the “α-D-glucosidase (Rice)” value at α-D-glucosidase (rice) turned out to be 100%. In [5], the “α-D-glucosidase (Bacillus)” value worked out at 9.1%.

Take `OC[C@H]1NC[C@H](O)[C@@H](O)[C@@H]1O` [DNJ, 1 deoxynojirmycin]: the “amyloglucosidase (A. niger), typical DNJ inhibitory activity” value in assay [6] is “NI”. The “α-D-man Jack bean, typical DNJ inhibitory activity” value in [7] was “weak”. Further, the “β-D-mannosidase (C. fimi)” value in [2] is −19%. In assay [3], the “α-D-mannosidase (Jack bean)” value is 27%. In addition, in assay [4], the Amyloglucosidase is 32%. On α-D-glucosidase (Yeast), the “α-D-glucosidase (Yeast)” value is given as 36%. In addition, the “β-D-glu almond, typical DNJ inhibitory activity” value in the assay with β-D-glucosidase (almond) is “moderate”. Moreover, at α-D-glucosidase (rice), the “α-D-glucosidase (Rice)” value worked out at 100%. In addition, the “α-D-glucosidase (Bacillus)” value in [5] is given as 100%. In addition, on α-L-fucosidase (bovine), the “α-L-fuc bovine, typical DNJ inhibitory activity” value was “NI”.

With `O=C(O)CCN1C[C@H](O)[C@@H](O)[C@H](O)[C@H]1CO` [DNJ-N-propanoic, DNJ-N-propanoic acid], in assay [1], the IC50 is 340 µM. Moreover, in assay [2], the “β-D-mannosidase (C. fimi)” value is reported as −5%. Moreover, the “α-D-mannosidase (Jack bean)” value in assay [3] is 40%. The Amyloglucosidase in assay [4] stood at 53%. On α-D-glucosidase (Yeast), the “α-D-glucosidase (Yeast)” value is given as 0.0%. For the same compound, the “α-D-glucosidase (Rice)” value at α-D-glucosidase (rice) turned out to be 100%. Besides, the “α-D-glucosidase (Bacillus)” value in assay [5] stood at 45.0%.

As to `O=C(O)CN1C[C@@H](O)[C@H](O)[C@H]1CO` [DAB-N-ethanoic, DAB-N-ethanoic acid], in assay [1], the IC50 was 523 µM. Moreover, the “β-D-mannosidase (C. fimi)” value in assay [2] was −5%. For the same compound, the “α-D-mannosidase (Jack bean)” value in assay [3] stood at 28%. Moreover, the Amyloglucosidase in [4] is −2%. In addition, on α-D-glucosidase (Yeast), the “α-D-glucosidase (Yeast)” value was determined as 10.7%. Besides, at α-D-glucosidase (rice), the “α-D-glucosidase (Rice)” value worked out at 42%. Further, the “α-D-glucosidase (Bacillus)” value in assay [5] stood at 24.2%.
